Values quoted from earlier work as cited in patent US20170014414A1, “PHARMACEUTICAL COMPOSITION” (ratiopharm GmbH, priority 2014, published 2017).

Settings: teaching of WO 2012/088033

Structure (SMILES) | stability of the solvate on exposure to moisture (during the formulation process) | photostability | solubility compared with trametinib DMSO solvate
CC(=O)Nc1cccc(-n2c(=O)n(C3CC3)c(=O)c3c(Nc4ccc(I)cc4F)n(C)c(=O)c(C)c32)c1.C[S+](C)[O-] [trametinib DMSO solvate] | revert to an insoluble desolvated form when exposed to moisture | can suffer from photo-instability | –
CC(=O)Nc1cccc(-n2c(=O)n(C3CC3)c(=O)c3c(Nc4ccc(I)cc4F)n(C)c(=O)c(C)c32)c1 [trametinib in its non-solvated form, N-{3-[3-cyclopropyl-5-(2-fluoro-4-iodophenylamino)-6,8-dimethyl-2,4,7-trioxo-3,4,6,7-tetrahydro-2H-pyrido[4,3-d]pyrimidin-1-yl]phenyl}acetamide] | – | – | much less soluble than trametinib DMSO solvate
